Measurements reported in patent US7417156B2, “Orally active, antimalarial, anticancer, artemisinin-derived trioxane dimers” (Johns Hopkins University, priority 2002, dated 2008).

Key:
MDA-MB-435 = assay: NCI 60 cell line panel screen (SRB); assay type: cell-based, human; settings: MDA-MB-435 (Breast Cancer)
COLO 205 = assay: NCI 60 cell line panel screen (SRB); assay type: cell-based, human
UACC-62 = assay: NCI 60 cell line panel screen (SRB); assay type: cell-based, human; settings: UACC-62 (Melanoma)
NCI-H226 = assay: NCI 60 cell line panel screen (SRB); assay type: cell-based, human
RPMI-8226 = assay: NCI 60 cell line panel screen (SRB); assay type: cell-based, human; settings: RPMI-8226 (Leukemia)
SF-295 = assay: NCI 60 cell line panel screen (SRB); assay type: cell-based, human
OVCAR-5 = assay: NCI 60 cell line panel screen (SRB); assay type: cell-based, human
A498 = assay: NCI 60 cell line panel screen (SRB); assay type: cell-based, human
HCC-2998 = assay: NCI 60 cell line panel screen (SRB); assay type: cell-based, human
SNB-75 = assay: NCI 60 cell line panel screen (SRB); assay type: cell-based, human
UO-31 = assay: NCI 60 cell line panel screen (SRB); assay type: cell-based, human
SK-MEL-28 = assay: NCI 60 cell line panel screen (SRB); assay type: cell-based, human
786-0 = assay: NCI 60 cell line panel screen (SRB); assay type: cell-based, human
NCI-H322M = assay type: cell-based
T-47D = assay: NCI 60 cell line panel screen (SRB); assay type: cell-based, human
OVCAR-4 = assay: NCI 60 cell line panel screen (SRB); assay type: cell-based, human
TK-10 = assay: NCI 60 cell line panel screen (SRB); assay type: cell-based, human
OVCAR-8 = assay: NCI 60 cell line panel screen (SRB); assay type: cell-based, human
LOX IMVI = assay: NCI 60 cell line panel screen (SRB); assay type: cell-based, human
SK-MEL-5 = assay: NCI 60 cell line panel screen (SRB); assay type: cell-based, human
SN12C = assay: NCI 60 cell line panel screen (SRB); assay type: cell-based, human
HT29 = assay: NCI 60 cell line panel screen (SRB); assay type: cell-based, human
U251 = assay: NCI 60 cell line panel screen (SRB); assay type: cell-based, human
SW-620 = assay: NCI 60 cell line panel screen (SRB); assay type: cell-based, human
DU-145 = assay: NCI 60 cell line panel screen (SRB); assay type: cell-based, human

## CC1CCC2C(C)C(CC(O)(CO)CC3OC4OC5(C)CCC6C(C)CCC(C3C)C46OO5)OC3OC4(C)CCC1C32OO4 (stereo not drawn) [Compound 5, bis-trioxane vicinal diol]
MDA-MB-435; LC50: PG=−50
  Log10LC50: −4.09 log10M
MDA-MB-435; TGI: PG=0
  Log10TGI50: −4.54 log10M
COLO 205; COLO 205 (Colon Cancer), LC50: PG=−50
  Log10LC50: −4.15 log10M
COLO 205; COLO 205 (Colon Cancer), TGI: PG=0
  Log10TGI50: −4.87 log10M
COLO 205; Colon Cancer, COLO 205
  Log10GI50: <−8.00
UACC-62; LC50: PG=−50
  Log10LC50: −4.24 log10M
UACC-62; TGI: PG=0
  Log10TGI50: −4.67 log10M
NCI-H226; NCI-H226 (Non-Small Cell Lung Cancer), LC50: PG=−50
  Log10LC50: −4.11 log10M
NCI-H226; NCI-H226 (Non-Small Cell Lung Cancer), TGI: PG=0
  Log10TGI50: −4.49 log10M
NCI-H226; Non-Small Cell Lung Cancer, NCI-H226
  Log10GI50: −4.87
RPMI-8226; LC50: PG=−50
  Log10LC50: >−4.00 log10M
RPMI-8226; TGI: PG=0
  Log10TGI50: >−4.00 log10M
SF-295; CNS Cancer, SF-295
  Log10GI50: −4.94
SF-295; SF-295 (CNS Cancer), LC50: PG=−50
  Log10LC50: −4.04 log10M
SF-295; SF-295 (CNS Cancer), TGI: PG=0
  Log10TGI50: −4.49 log10M
OVCAR-5; OVCAR-5 (Ovarian Cancer), LC50: PG=−50
  Log10LC50: >−4.00 log10M
OVCAR-5; OVCAR-5 (Ovarian Cancer), TGI: PG=0
  Log10TGI50: −4.33 log10M
OVCAR-5; Ovarian Cancer, OVCAR-5
  Log10GI50: −4.78
A498; A498 (Renal Cancer), LC50: PG=−50
  Log10LC50: −4.21 log10M
A498; A498 (Renal Cancer), TGI: PG=0
  Log10TGI50: −4.51 log10M
A498; Renal Cancer, A498
  Log10GI50: −4.81
HCC-2998; Colon Cancer, HCC-2998
  Log10GI50: −4.65
HCC-2998; HCC-2998 (Colon Cancer), LC50: PG=−50
  Log10LC50: >−4.00 log10M
HCC-2998; HCC-2998 (Colon Cancer), TGI: PG=0
  Log10TGI50: −4.23 log10M
SNB-75; CNS Cancer, SNB-75
  Log10GI50: −4.53
SNB-75; SNB-75 (CNS Cancer), LC50: PG=−50
  Log10LC50: >−4.00 log10M
SNB-75; SNB-75 (CNS Cancer), TGI: PG=0
  Log10TGI50: −4.04 log10M
UO-31; Renal Cancer, UO-31
  Log10GI50: −7.38
UO-31; UO-31 (Renal Cancer), LC50: PG=−50
  Log10LC50: −4.26 log10M
UO-31; UO-31 (Renal Cancer), TGI: PG=0
  Log10TGI50: −4.68 log10M
SK-MEL-28; Melanoma, SK-MEL-28
  Log10GI50: −4.79
SK-MEL-28; SK-MEL-28 (Melanoma), LC50: PG=−50
  Log10LC50: >−4.00 log10M
SK-MEL-28; SK-MEL-28 (Melanoma), TGI: PG=0
  Log10TGI50: −4.31 log10M
786-0; 786-0 (Renal Cancer), LC50: PG=−50
  Log10LC50: >−4.00 log10M
786-0; 786-0 (Renal Cancer), TGI: PG=0
  Log10TGI50: −4.36 log10M
786-0; Renal Cancer, 786-0
  Log10GI50: −4.87
NCI-H322M; NCI-H322M (Non-Small Cell Lung Cancer), LC50: PG=−50
  Log10LC50: −4.16 log10M
NCI-H322M; NCI-H322M (Non-Small Cell Lung Cancer), TGI: PG=0
  Log10TGI50: −4.44 log10M
NCI-H322M; Non-Small Cell Lung Cancer, NCI-H322M
  Log10GI50: −4.71
T-47D; Breast Cancer, T-47D
  Log10GI50: −7.23
T-47D; T-47D (Breast Cancer), LC50: PG=−50
  Log10LC50: >−4.00 log10M
T-47D; T-47D (Breast Cancer), TGI: PG=0
  Log10TGI50: −4.48 log10M
OVCAR-4; OVCAR-4 (Ovarian Cancer), LC50: PG=−50
  Log10LC50: −4.12 log10M
OVCAR-4; OVCAR-4 (Ovarian Cancer), TGI: PG=0
  Log10TGI50: −4.55 log10M
OVCAR-4; Ovarian Cancer, OVCAR-4
  Log10GI50: −4.99
TK-10; Renal Cancer, TK-10
  Log10GI50: −4.91
TK-10; TK-10 (Renal Cancer), LC50: PG=−50
  Log10LC50: −4.06 log10M
TK-10; TK-10 (Renal Cancer), TGI: PG=0
  Log10TGI50: −4.49 log10M
OVCAR-8; OVCAR-8 (Ovarian Cancer), LC50: PG=−50
  Log10LC50: >−4.00 log10M
OVCAR-8; OVCAR-8 (Ovarian Cancer), TGI: PG=0
  Log10TGI50: −4.47 log10M
OVCAR-8; Ovarian Cancer, OVCAR-8
  Log10GI50: <−8.00
LOX IMVI; LOX IMVI (Melanoma), LC50: PG=−50
  Log10LC50: −4.44 log10M
LOX IMVI; LOX IMVI (Melanoma), TGI: PG=0
  Log10TGI50: −5.47 log10M
LOX IMVI; Melanoma, LOX IMVI
  Log10GI50: <−8.00
SK-MEL-5; Melanoma, SK-MEL-5
  Log10GI50: −7.69
SK-MEL-5; SK-MEL-5 (Melanoma), LC50: PG=−50
  Log10LC50: −4.21 log10M
SK-MEL-5; SK-MEL-5 (Melanoma), TGI: PG=0
  Log10TGI50: −4.64 log10M
SN12C; Renal Cancer, SN12C
  Log10GI50: −7.60
SN12C; SN12C (Renal Cancer), LC50: PG=−50
  Log10LC50: −4.26 log10M
SN12C; SN12C (Renal Cancer), TGI: PG=0
  Log10TGI50: −4.72 log10M
HT29; Colon Cancer, HT29
  Log10GI50: <−8.00
HT29; HT29 (Colon Cancer), LC50: PG=−50
  Log10LC50: >−4.00 log10M
HT29; HT29 (Colon Cancer), TGI: PG=0
  Log10TGI50: >−4.00 log10M
U251; CNS Cancer, U251
  Log10GI50: −7.68
U251; U251 (CNS Cancer), LC50: PG=−50
  Log10LC50: −4.08 log10M
U251; U251 (CNS Cancer), TGI: PG=0
  Log10TGI50: −4.61 log10M
SW-620; Colon Cancer, SW-620
  Log10GI50: −4.97
SW-620; SW-620 (Colon Cancer), LC50: PG=−50
  Log10LC50: >−4.00 log10M
SW-620; SW-620 (Colon Cancer), TGI: PG=0
  Log10TGI50: >−4.00 log10M
DU-145; DU-145 (Prostate Cancer), LC50: PG=−50
  Log10LC50: −4.13 log10M
DU-145; DU-145 (Prostate Cancer), TGI: PG=0
  Log10TGI50: −4.48 log10M
DU-145; Prostate Cancer, DU-145
  Log10GI50: −4.83
